The values below are quoted from earlier work in PMC11477967, “Review of the Structural Characteristics and Biological Activities of Tricholoma Secondary Metabolites (2018–2023)” (Molecules, 2024).

Bounds are passed on as bounds.

One series relates to human tumor cell lines. On the set-up: method as in PMID 29758519, PMID 32534274, PMID 26186257. The following applies: Table 1 summary.
In the next series the test system is SMMC-7721. Also noted: method as in PMID 29758519, PMID 32534274.
The subject of series [1] is nitric oxide (NO) production in lipopolysaccharide (LPS)-induced RAW264.7 macrophages. As to conditions: for Bioactivities: Anti-inflammatory activity: Table 1 summary; for IC50: LPS-induced RAW264.7 macrophages.
The subject of another series is SW480. Also noted: method as in PMID 29758519, PMID 32534274.
Another series has as its system bacteria. Also noted: method as in PMID 32534274, PMID 26186257, PMID 34604687, PMID 28794307. As to conditions: Table 1 summary.

Consider `C=C(CCC(C)C1CCC2(C)C3=C(CC(O)C12C)C1(C)CCC(OC(=O)CC(=O)OC)C(C)(C)C1CC3)C(C)C(=O)O` [Compound 16, (25S)-(+)-12α-hydroxy-3α-methylcarboxyacetate-24-methyllanosta-8,24(31)-diene-26-oic acid], for which, in the series on human tumor cell lines, the “Bioactivities: Anti-cancer activity” value is listed as “Anti-cancer activity”.
In the case of `COC(=O)C(Cc1ccccc1)NC(=O)CC(C)(O)CC(=O)OC1C(O)CC2(C)C3=C(CCC2C1(C)C)C1(C)CCC(C(C)CCC(O)C(C)(C)O)C1(C)C(O)C3` (stereo not shown) [Compound 2, pardinol B], the IC50 with A-549, in the series with MCF-7, in the series on SMMC-7721, in the series on SW480 and in the series on HL-60 was < 40 µM each time. In addition, the “Bioactivities: Anti-inflammatory activity” value in series [1] is “Anti-inflammatory activity”. The “Bioactivities: Anti-cancer activity” value in the series with human tumor cell lines was “Anti-cancer activity”.
Consider `C=C1CC[C@@H](CCO)C(C)(C)[C@H]1C/C=C1/C(=O)OC[C@@H]1O` [Compound 70, tricholopardin B], for which, in series [1], the IC50 was 16.2 µM and the “Bioactivities: Anti-inflammatory activity” value is “Anti-inflammatory activity”.
With `CCC(=O)C1=C(C(COC(C)=O)NC(=O)CCC(N)C(=O)O)C(OC(=O)CC(C)C)CC1OC` (stereo not shown) [Compound 87, pardinumone D], the “Bioactivities: Antibacterial activity” value with bacteria is listed as “Antibacterial activity”.
For `COC(=O)C(NC(=O)CC(C)(O)CC(=O)OC1CC2(C)C3=C(CCC2C(C)(C)C1O)C1(C)CCC(C(C)CCC(O)C(C)(C)O)C1(C)C(O)C3)C(OC(C)=O)c1ccccc1` (stereo not shown) [Compound 5, pardinol E], the “Bioactivities: Anti-inflammatory activity” value in series [1] is recorded as “Anti-inflammatory activity”. In addition, the “Bioactivities: Anti-cancer activity” value with human tumor cell lines is on record as “Anti-cancer activity”.
Consider `CC(C=CC(C)(O)C1CC(O)C2C3=CC(=O)OC3=CCC21C)C(C)(C)O` (stereo not shown) [Compound 49, tricholosterol D], for which, in series [1], the IC50 is 31.8 µM and the “Bioactivities: Anti-inflammatory activity” value is “Anti-inflammatory activity”.
As for `CCC1(O)OCC(N2C(=O)CCC2OC)C2=C1C(OC)CC2OC(=O)CC(C)C` (stereo not shown) [Compound 84, pardinumone A], in the series with bacteria, the “Bioactivities: Antibacterial activity” value is given as “Antibacterial activity”.
On to `COC(=O)C(NC(=O)CC(C)(O)CC(=O)OC1C(O)CC2(C)C3=C(CCC2C1(C)C)C1(C)CCC(C2CCC(C(C)(C)O)OC2O)C1(C)C(O)C3)C(OC(C)=O)c1ccccc1` (stereo not shown) [Compound 8, pardinol H], for which the “Bioactivities: Anti-inflammatory activity” value in series [1] is “Anti-inflammatory activity”. Also, the “Bioactivities: Anti-cancer activity” value in the series on human tumor cell lines is reported as “Anti-cancer activity”.
Turning to `COC(=O)C(NC(=O)CC(C)(O)CC(=O)OC1C(O)CC2(C)C3=C(CCC2C1(C)C)C1(C)CCC(C2CCC(C(C)(C)O)OC2O)C1(C)C(O)C3)C(O)c1ccccc1` (stereo not shown) [Compound 7, pardinol G], the “Bioactivities: Anti-inflammatory activity” value in series [1] was “Anti-inflammatory activity”. Also, in the series with human tumor cell lines, the “Bioactivities: Anti-cancer activity” value is reported as “Anti-cancer activity”.
As to `CC(C)[C@@H](C)/C=C/[C@@H](C)[C@H]1CC[C@H]2C3=C(CC[C@]12C)[C@@]1(C)CC[C@H](O)CC1=CC3=O` [Compound 30, 3β-hydroxyl-(22E,24R)-ergosta-5,8,22-trien-7-one], the IC50 with HL-60 was < 10 µM. For the same molecule, the “Bioactivities: Anti-cancer activity” value with human tumor cell lines is “Anti-cancer activity”.
Consider `CCC1(O)OCC(N2C(=O)CCC2OC)C2=C1C(OC)CC2OC(=O)CC(C)C` (stereo not shown) [Compound 85, pardinumone B], for which the “Bioactivities: Antibacterial activity” value in the series with bacteria is “Antibacterial activity”.
For `CC(C)[C@@H](C)/C=C/[C@@H](C)[C@H]1CC(=O)C2=C3C(=O)C=C4C[C@@H](O)CC[C@]4(C)[C@H]3CC[C@@]21C` [Compound 34, 3β-hydroxyl-(22E,24R)-ergosta-5,8(14),22-trien-7,15-dione], the “Bioactivities: Anti-cancer activity” value in the series with human tumor cell lines is given as “Anti-cancer activity”.
As to `CC(C)[C@@H](C)/C=C/[C@@H](C)[C@@H](CC(=O)O)[C@@]1(C)CCC2=C(C1=O)[C@H](O)[C@@H]1O[C@@]13C[C@@H](O)CC[C@]23C` [Compound 46, tricholosterol A], in series [1], the concentration for half-maximal inhibition (IC50) was 27.6 µM and the “Bioactivities: Anti-inflammatory activity” value is “Anti-inflammatory activity”.
As for `CC=C1OCC(NC(=O)CCC(N)C(=O)O)C2=C1C(OC)CC2OC(=O)CC(C)C` (stereo not shown) [Compound 86, pardinumone C], the “Bioactivities: Antibacterial activity” value in the series on bacteria was “Antibacterial activity”.
For `CC(C)C(C)C=CC(C)C1CCC2C3=CC(=O)OC3(O)CCC21C` (stereo not shown) [Compound 41, demethylincisterol A3], the IC50 in the series on A-549, with MCF-7, with SMMC-7721, in the series on SW480 and with HL-60 was < 40 µM each time. The “Bioactivities: Anti-cancer activity” value with human tumor cell lines is on record as “Anti-cancer activity”.
Regarding `COC(=O)C(NC(=O)CC(C)(O)CC(=O)OC1C(O)CC2(C)C3=C(CCC2C1(C)C)C1(C)CCC(C(C)CCC(O)C(C)(C)O)C1(C)C(O)C3)C(OC(C)=O)c1ccccc1` (stereo not shown) [Compound 6, pardinol F], in series [1], the “Bioactivities: Anti-inflammatory activity” value is “Anti-inflammatory activity”. Further, the “Bioactivities: Anti-cancer activity” value in the series on human tumor cell lines is recorded as “Anti-cancer activity”.
Regarding `CC(C)[C@@H](C)/C=C/[C@@H](C)[C@H]1CC[C@H]2C3=C(CC[C@]12C)[C@@]1(C)CC[C@H](O)C[C@@]12O[C@H]2[C@@H]3O` [Compound 35, 5α,6α-epoxy-(22E,24R)-ergosta-8,22-diene-3β,7β-diol], in the series on human tumor cell lines, the “Bioactivities: Anti-cancer activity” value was “Anti-cancer activity”.
As to `CC(C)[C@@H](C)/C=C/[C@@H](C)[C@H]1C[C@H](O)C2=C3C(=O)C=C4C[C@@H](O)CC[C@]4(C)[C@H]3CC[C@@]21C` [Compound 32, 3β,15α-dihydroxyl-(22E,24R)-ergosta-5,8(14),22-trien-7-one], the IC50 with A-549, with MCF-7, with SMMC-7721, in the series with SW480 and in the series with HL-60 was < 40 µM in each case. Further, the “Bioactivities: Anti-cancer activity” value with human tumor cell lines is listed as “Anti-cancer activity”.
Regarding `CC(C)[C@@H](C)/C=C/[C@@H](C)[C@H]1CC(=O)[C@H]2C3=C(CC[C@@]21C)[C@@]1(C)CC[C@H](O)CC1=CC3=O` [Compound 29, 3β-hydroxyl-(22E,24R)-ergosta-5,8,22-trien-7,15-dione], in the series with HL-60, the 50% inhibitory concentration (IC50) is < 10 µM. The “Bioactivities: Anti-cancer activity” value in the series with human tumor cell lines is on record as “Anti-cancer activity”.
As for `CC(C)C(C)C=CC(C)C1CCC2C3(O)C=CC4=CC(=O)CCC4(C)C3CCC12C` (stereo not shown) [Compound 26, isocyathisterol], the IC50 with A-549, in the series on MCF-7, in the series on SMMC-7721, with SW480 and with HL-60 was < 40 µM each time. Further, in the series on human tumor cell lines, the “Bioactivities: Anti-cancer activity” value is “Anti-cancer activity”.
Regarding `COC12CCC3(C)C(CCC3C(C)C=CC(C)C(C)C)C1=CC(=O)O2` (stereo not shown) [Compound 42, volemolide], the IC50 in the series on MCF-7, in the series with SMMC-7721, in the series on SW480 and in the series on HL-60 was < 40 µM throughout. For the same molecule, the “Bioactivities: Anti-cancer activity” value with human tumor cell lines is “Anti-cancer activity”.

Broadly, the IC50 is the concentration at which inhibition is half-maximal.
